Counter-ions that a name gives are not always drawn. Bounds are passed on as bounds.

Test system in one series: not given
Experiment: not given
As to conditions: daily dosage about 300 mg, oral; cited from earlier work.
In the case of `COc1ccc(/C=C/C(=O)Nc2ccccc2C(=O)O)cc1OC` [tranilast (III), tranilast, reference compound], the “side effects in the digestive system” value is “nausea, abdominal pain, and gastric discomfort”.

The same series, now with this note: human, in vivo; cited from earlier work.
Take `O=C(O)c1cc(=O)c2c(OCC(O)COc3cccc4oc(C(=O)O)cc(=O)c34)cccc2o1` [disodium cromoglycate (II), disodium cromoglycate, reference compound]: the “physical discomfort in the throat” value is recorded as “feeling of physical discomfort in the throat”.

The next series concerns mast cells. The experiment in a line: Inhibitory effect on histamine release from sensitized rat peritoneal mast cells (DNP-As antigen challenge). The class given is cell-based, Wistar rats. As to conditions: Mast cell; rat peritoneal cells passively sensitized with anti-DNP-As rat serum; compound 1 min before DNP-As; 37° C. The method, then:
The inhibitory effect of histamine release was examined with the under method, while using disodium cromoglycate(II), tranilast (III), and TA-5707F(IV)as reference drugs. Mixed peritoneal cells obtained from male Wistar rats weighing 350-400 g were sensitized by incubating for 2 hr at 37° C. with anti-DNP-As rat serum (produced according to the method of Tada and Okumura [Tada, T. and Okmura, K.: J. Immunology, 106,1002 (1971)]. The cell suspension containing about 1×10^5 mast cells/ml was prepared in Hepes Tyrode buffer containing heparin (10 unit/ml ) and BSA (0.3%). This suspension was divided into 0.8 ml aliquots in separate polyethylene tubes. […] After incubation at 37° C. for 1 min, 0.1 ml of DNP-As solution (50μg/ml) were added, followed by incubation at 37° C. for 2 min. The reactio was terminated by adding 2 ml of the cold buffer. The supernatants were separated by centrifugation, the cell pellets were resuspended in 3 ml buffer and placed for 3 min in the heating block (100° C.) to release the residual histamine into cells. The histamine was quantitated using the spedrofluorometric technique of modified Shore's method. The IC 50 was obtained from the dose-response curve.
Take `O=C(Nc1nnn[nH]1)c1cncc(N2CCCCC2)n1` [Example 9, 6-(1-Piperidinyl)-N-(1H-5-tetrazolyl)pyrazine-2-carboxamide]: the IC50 (as a rule, the concentration that gives 50% inhibition) turned out to be 5.6 nM.
For `O=C(Nc1nnn[nH]1)c1cncc(Nc2ccccc2)n1` [Example 16, 6-(Phenylamino)-N-(1H-5-tetrazolyl)pyrazine-2-carboxamide], the IC50 is 0.062 nM.
On the same count and under the same terms, as for `CNc1cncc(C(=O)Nc2nnn[nH]2)n1` [Example 2, 6-(Methylamino)-N-(1H-5-tetrazolyl)pyrazine-2-carboxamide], the figure is 2.5 nM.
The same measure, in the same setting: as for `O=C(O)c1cc(=O)c2c(OCC(O)COc3cccc4oc(C(=O)O)cc(=O)c34)cccc2o1` [disodium cromoglycate (II), disodium cromoglycate, reference compound], the figure is 190 nM; as for `CCCNc1cncc(C(=O)Nc2nnn[nH]2)n1` [Example 4, 6-(n-Propylamino)-N-(1H-5-tetrazolyl)pyrazine-2-carboxamide], 17 nM; as for `Cc1cccc(C(=O)Nc2nnn[nH]2)n1` [TA-5707F (IV), 6-methyl-N-(1H-5-tetrazolyl) pyridine-2-carboxamide, reference compound], 46 nM.
The same measure, in the same setting: as for `CCN(CC)c1cncc(C(=O)Nc2nnn[nH]2)n1` [Example 7, 6-(Diethylamino)-N-(1H-5-tetrazolyl)pyrazine-2-carboxamide], the figure is 15 nM; as for `CN(C)c1cncc(C(=O)Nc2nnn[nH]2)n1` [Example 6, 6-(Dimethylamino)-N-(1H-5-tetrazolyl)pyrazine-2-carboxamide], 0.47 nM.
Consider `CN1CCN(c2cncc(C(=O)Nc3nnn[nH]3)n2)CC1` [Example 15, 6-(4-Methyl-1-piperazinyl)-N-(1H-5-tetrazolyl)pyrazine-2-carboxamide hydrochloride hydrate], for which the IC50 was 36 nM.
With `O=C(Nc1nnn[nH]1)c1cncc(N2CCOCC2)n1` [Example 14, 6-(4-Morpholinyl)-N-(1H-5-tetrazolyl)pyrazine-2-carboxamide], the IC50 was 36 nM.
On the same count and under the same terms, for `COc1ccc(/C=C/C(=O)Nc2ccccc2C(=O)O)cc1OC` [tranilast (III), tranilast, reference compound] the value was 24000 nM; for `CCNc1cncc(C(=O)Nc2nnn[nH]2)n1` [Example 3, 6-(Ethylamino)-N-(1H-5-tetrazolyl)pyrazine-2-carboxamide], 2 nM.
Same read-out and setting: for `O=C(Nc1nnn[nH]1)c1cncc(N2CCCC2)n1` [Example 8 (free), 6-(1-Pyrrolidinyl)-N-(1H-5-tetrazolyl)pyrazine-2-carboxamide] the value was 1.2 nM.
Same read-out and setting: as for `CC(C)Nc1cncc(C(=O)Nc2nnn[nH]2)n1` [Example 5, 6-(Isopropylamino)-N-(1H-5-tetrazolyl)pyrazine-2-carboxamide], the figure is 5 nM.

Test system in another series: not listed separately
The series is described as follows: Acute toxicity test (oral). As to conditions: mouse, in vivo, po. The method, then:
Male ICR mice 5 weeks old were used as 5 animals at a group. The compounds were administered orally at each dosage.
As for `O=C(Nc1nnn[nH]1)c1cncc(N2CCCC2)n1.[Na]`, the LD50 (as a rule, the dose at which mortality reaches 50%) was over 2000 mg/kg.

The same series, now with this note: mouse, in vivo; male ICR mice 5 weeks old, oral.
`O=C(Nc1nnn[nH]1)c1cncc(N2CCCC2)n1` [Example 8 (free), 6-(1-Pyrrolidinyl)-N-(1H-5-tetrazolyl)pyrazine-2-carboxamide]: the LD50 is over 2000 mg/kg.

The record behind these values is US4792547A, “Pyrazine-2-carboxamide derivatives useful in treating allergic disease” (priority 1985, dated 1988).
